Data from US7396837B2, “Antitumoral analogs of lamellarins” (Pharma Mar, S.A.U., priority 2002, dated 2008).

Experiments:
Type in all cases: cell-based
[1] = test system: HeLa; assay: SRB colorimetric cell growth inhibition assay, HeLa; conditions: Homo sapiens, HeLa
Procedure, shortened: (§1)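 Tested samples remained on human cancer cell cultures throughout the incubation; viable biomass was then stained with SRB and read colorimetrically.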

[2] = test system: A-549; assay: SRB colorimetric cell growth inhibition assay, A-549; conditions: Homo sapiens, A549, A-549
Procedure, shortened: as §1

[3] = test system: LNCaP; assay: SRB colorimetric cell growth inhibition assay, LNCaP; conditions: Homo sapiens, LNCaP, LN-caP
Procedure, shortened: as §1

[4] = test system: IGROV; assay: SRB colorimetric cell growth inhibition assay, IGROV; conditions: Homo sapiens, IGROV
Procedure, shortened: as §1

[5] = test system: HT-29; assay: SRB colorimetric cell growth inhibition assay, HT-29; conditions: Homo sapiens, HT-29, HT-29
Procedure, shortened: as §1

[6] = test system: LoVo; assay: SRB colorimetric cell growth inhibition assay, LoVo; conditions: Homo sapiens, LoVo
Procedure, shortened: as §1

[7] = test system: HeLa-APL; assay: SRB colorimetric cell growth inhibition assay, HeLa-APL (aplidine resistant); conditions: Homo sapiens, HELA-APL
Procedure, shortened: as §1

[8] = test system: PANC-1; assay: SRB colorimetric cell growth inhibition assay, PANC-1; conditions: Homo sapiens, PANC-1, PANC-1
Procedure, shortened: as §1

[9] = test system: K-562; assay: SRB colorimetric cell growth inhibition assay, K-562; conditions: Homo sapiens, K562, K-562
Procedure, shortened: as §1

[10] = test system: SK-BR-3; assay: SRB colorimetric cell growth inhibition assay, SK-BR-3; conditions: Homo sapiens, SK-BR-3, SK-BR-3
Procedure, shortened: as §1

[11] = test system: DU-145; assay: SRB colorimetric cell growth inhibition assay, DU-145; conditions: Homo sapiens, DU-145, DU-145
Procedure, shortened: as §1

[12] = test system: LoVo-Dox; assay: SRB colorimetric cell growth inhibition assay, LoVo-Dox (MDR); conditions: Homo sapiens, LOVO-DOX
Procedure, shortened: as §1

[13] = test system: SK-MEL-28; assay: SRB colorimetric cell growth inhibition assay, SK-MEL-28; conditions: Homo sapiens, SK-MEL-28, MEL-28
Procedure, shortened: as §1

[14] = test system: IGROV-ET; assay: SRB colorimetric cell growth inhibition assay, IGROV-ET (ET-743 resistant); conditions: Homo sapiens, IGROV-ET
Procedure, shortened: as §1

Work on COc1cc(-c2c3c4cc(OC)c(OC(=O)[C@@H]5CCCN5)cc4oc(=O)c3n3ccc4cc(OC(=O)[C@@H]5CCCN5)c(OC)cc4c23)ccc1OC(=O)[C@@H]1CCCN1 [Compound 180] yielded a GI50 ([1]; GI=growth inhibition, read-out: GI50 HELA) of 80.6 nM, a CC50 ([1]; cell killing (cytotoxic effect), read-out: LC50 HELA) of 11100 nM and an IC (TGI) ([1]; total growth inhibition (cytostatic effect), read-out: TGI HELA) of 1990 nM. It also gave a GI50 ([2]; GI=growth inhibition, read-out: GI50 A-549) of 20.1 nM, a CC50 ([2]; cell killing (cytotoxic effect), read-out: LC50 A-549) of 7260 nM and an IC (TGI) ([2]; total growth inhibition (cytostatic effect), read-out: TGI A-549) of 233 nM. The GI50 ([3]; GI=growth inhibition, read-out: GI50 LN-caP) was 53 nM, the CC50 ([3]; cell killing (cytotoxic effect), read-out: LC50 LN-caP) was 615 nM and the IC (TGI) ([3]; total growth inhibition (cytostatic effect), read-out: TGI LN-caP) was 227 nM. The GI50 ([4]; GI=growth inhibition, read-out: GI50 IGROV) was 53 nM, the CC50 ([4]; cell killing (cytotoxic effect), read-out: LC50 IGROV) was 11100 nM and the IC (TGI) ([4]; total growth inhibition (cytostatic effect), read-out: TGI IGROV) was 319 nM. For the same compound, the GI50 ([5]; GI=growth inhibition, read-out: GI50 HT-29) was 11100 nM, the CC50 ([5]; cell killing (cytotoxic effect), read-out: LC50 HT-29) was 11100 nM and the IC (TGI) ([5]; total growth inhibition (cytostatic effect), read-out: TGI HT-29) was 11100 nM. It also gave a GI50 ([6]; GI=growth inhibition, read-out: GI50 LOVO) of 535 nM, a CC50 ([6]; cell killing (cytotoxic effect), read-out: LC50 LOVO) of 8510 nM and an IC (TGI) ([6]; total growth inhibition (cytostatic effect), read-out: TGI LOVO) of 2010 nM. It also gave a GI50 ([7]; GI=growth inhibition, read-out: GI50 HELA-APL) of 130 nM, a CC50 ([7]; cell killing (cytotoxic effect), read-out: LC50 HELA-APL) of 11100 nM and an IC (TGI) ([7]; total growth inhibition (cytostatic effect), read-out: TGI HELA-APL) of 1210 nM. It also gave a GI50 ([8]; GI=growth inhibition, read-out: GI50 PANC-1) of 130 nM, a CC50 ([8]; cell killing (cytotoxic effect), read-out: LC50 PANC-1) of 11100 nM and an IC (TGI) ([8]; total growth inhibition (cytostatic effect), read-out: TGI PANC-1) of 11.1 nM. The GI50 ([9]; GI=growth inhibition, read-out: GI50 K-562) was 40 nM, the CC50 ([9]; cell killing (cytotoxic effect), read-out: LC50 K-562) was 11100 nM and the IC (TGI) ([9]; total growth inhibition (cytostatic effect), read-out: TGI K-562) was 1530 nM. The GI50 ([10]; GI=growth inhibition, read-out: GI50 SK-BR-3) was 18.1 nM, the CC50 ([10]; cell killing (cytotoxic effect), read-out: LC50 SK-BR-3) was 1190 nM and the IC (TGI) ([10]; total growth inhibition (cytostatic effect), read-out: TGI SK-BR-3) was 54.1 nM. It also gave a GI50 ([11]; GI=growth inhibition, read-out: GI50 DU-145) of 35.9 nM, a CC50 ([11]; cell killing (cytotoxic effect), read-out: LC50 DU-145) of 11100 nM and an IC (TGI) ([11]; total growth inhibition (cytostatic effect), read-out: TGI DU-145) of 84.2 nM. The GI50 ([12]; GI=growth inhibition, read-out: GI50 LOVO-DOX) was 104 nM, the CC50 ([12]; cell killing (cytotoxic effect), read-out: LC50 LOVO-DOX) was 11100 nM and the IC (TGI) ([12]; total growth inhibition (cytostatic effect), read-out: TGI LOVO-DOX) was 498 nM. The GI50 ([13]; GI=growth inhibition, read-out: GI50 MEL-28) was 13.4 nM, the CC50 ([13]; cell killing (cytotoxic effect), read-out: LC50 MEL-28) was 11100 nM and the IC (TGI) ([13]; total growth inhibition (cytostatic effect), read-out: TGI MEL-28) was 126 nM. It also gave a GI50 ([14]; GI=growth inhibition, read-out: GI50 IGROV-ET) of 69.1 nM, a CC50 ([14]; cell killing (cytotoxic effect), read-out: LC50 IGROV-ET) of 11100 nM and an IC (TGI) ([14]; total growth inhibition (cytostatic effect), read-out: TGI IGROV-ET) of 531 nM.
